This note sets out measurements from patent US20250282768A1 (Janssen Pharmaceutica NV, priority 2022, published 2025).

The assay concerns p-IKKa levels in L363 (NIK translocated multiple myeloma) cells. Briefly: Assay 2: Effect of compounds on p-IKKa levels in L363 (NIK translocated multiple myeloma) cells. It counts as cell-based. The conditions noted are these: Homo sapiens, L-363, 6 h, read-out: Assay 2 IC50 (nM), p-IKKa (Ser 176/180) in BAFF stimulated L363 cells with MG132, 6 h; average if tested more than once. The method in brief: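 L363 cells incubated overnight ± 250 ng/ml BAFF, then 6 h at 37 °C with compound (0.3% DMSO) ± 10 μM MG132. Lysates assayed for p-IKKa (Ser176/180) by AlphaLISA SureFire. IC50 from sigmoidal fit of % inhibition normalized to BAFF/MG132-stimulated and unstimulated controls.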
Regarding `CN1CC[C@@](O)(c2cc(-c3cccc(-c4ccnc(Nc5cn(C)nc5OCCO)n4)n3)no2)C1=O` [Example 232, (R)-3-Hydroxy-3-(3-(6-(2-((3-(2-hydroxyethoxy)-1-methyl-1H-pyrazol-4-yl)amino)pyrimidin-4-yl)pyridin-2-yl)isoxazol-5-yl)-1-methylpyrrolidin-2-one], the IC50 was 50 to 500 nM.

Turning to `Cc1nn(C2CCOCC2)cc1Nc1nccc(-c2cccc(-c3cc([C@]4(O)CCN(C)C4=O)on3)n2)n1` [Example 233, (R)-3-Hydroxy-1-methyl-3-(3-(6-(2-((3-methyl-1-(tetrahydro-2H-pyran-4-yl)-1H-pyrazol-4-yl)amino)pyrimidin-4-yl)pyridin-2-yl)isoxazol-5-yl)pyrrolidin-2-one], the IC50 is under 50 nM.

Regarding `Cc1nn(CC(C)(C)O)cc1Nc1nccc(-c2cccc(-c3cc([C@]4(O)CCN(C)C4=O)on3)n2)n1` [Example 234, (R)-3-Hydroxy-3-(3-(6-(2-((1-(2-hydroxy-2-methylpropyl)-3-methyl-1H-pyrazol-4-yl)amino)pyrimidin-4-yl)pyridin-2-yl)isoxazol-5-yl)-1-methylpyrrolidin-2-one], the IC50 is under 50 nM.

Consider `Cc1nn(CC(C)(C)O)cc1Nc1nccc(-c2cccc(-c3cc([C@@]4(O)C(=O)N(C)CC4(F)F)on3)n2)n1` [Example 235, (R)-4,4-Difluoro-3-hydroxy-3-(3-(6-(2-((1-(2-hydroxy-2-methylpropyl)-3-methyl-1H-pyrazol-4-yl)amino)pyrimidin-4-yl)pyridin-2-yl)isoxazol-5-yl)-1-methylpyrrolidin-2-one], for which the IC50 was under 50 nM.

Take `Cc1noc(C)c1Nc1nccc(-c2cccc(-c3cc([C@]4(O)CCN(C)C4=O)on3)n2)n1` [Example 236, (R)-3-(3-(6-(2-((3,5-Dimethylisoxazol-4-yl)amino)pyrimidin-4-yl)pyridin-2-yl)isoxazol-5-yl)-3-hydroxy-1-methylpyrrolidin-2-one]: the IC50 lay in the range of 50 to 500 nM.

`CCn1ccc(Nc2nccc(-c3cccc(-c4cc([C@]5(O)CCN(C)C5=O)no4)n3)n2)n1` [Example 237, (R)-3-(5-(6-(2-((1-Ethyl-1H-pyrazol-3-yl)amino)pyrimidin-4-yl)pyridin-2-yl)isoxazol-3-yl)-3-hydroxy-1-methylpyrrolidin-2-one]: the IC50 is under 50 nM.

As to `Cc1c(Nc2nccc(-c3cccc(-c4cc([C@]5(O)CCN(C)C5=O)no4)n3)n2)cnn1C` [Example 238, (R)-3-(5-(6-(2-((1,5-Dimethyl-1H-pyrazol-4-yl)amino)pyrimidin-4-yl)pyridin-2-yl)isoxazol-3-yl)-3-hydroxy-1-methylpyrrolidin-2-one], the IC50 is under 50 nM.

In the case of `CN1CC(F)(F)[C@@](O)(c2cc(-c3cccc(-c4ccnc(Nc5cnn6c5CCCC6)n4)n3)no2)C1=O` [Example 239, (R)-4,4-Difluoro-3-hydroxy-1-methyl-3-(3-(6-(2-((4,5,6,7-tetrahydropyrazolo[1,5-a]pyridin-3-yl)amino)pyrimidin-4-yl)pyridin-2-yl)isoxazol-5-yl)pyrrolidin-2-one], the IC50 lay in the range of 50 to 500 nM.

Regarding `CN1C(=O)[C@](O)(c2cc(-c3cccc(-c4ccnc(Nc5cnn(C)c5)n4)n3)no2)[C@H]2C[C@H]21` [Example 240, (1R,4R,5S)-4-Hydroxy-2-methyl-4-(3-(6-(2-((1-methyl-1H-pyrazol-4-yl)amino)pyrimidin-4-yl)pyridin-2-yl)isoxazol-5-yl)-2-azabicyclo[3.1.0]hexan-3-one], the IC50 is 50 to 500 nM.

As for `Cc1c(Nc2nccc(-c3cccc(-c4cc([C@@]5(O)C(=O)N(C)[C@@H]6C[C@@H]65)on4)n3)n2)cnn1C` [Example 241, (1R,4R,5S)-4-(3-(6-(2-((1,5-Dimethyl-1H-pyrazol-4-yl)amino)pyrimidin-4-yl)pyridin-2-yl)isoxazol-5-yl)-4-hydroxy-2-methyl-2-azabicyclo[3.1.0]hexan-3-one], the IC50 is 50 to 500 nM.

In the case of `Cc1c(Nc2nccc(-c3cccc(-c4cc([C@@]5(O)C(=O)N(C)CC5(F)F)on4)n3)n2)cnn1CC(C)(C)O` [Example 242, (R)-4,4-Difluoro-3-hydroxy-3-(3-(6-(2-((1-(2-hydroxy-2-methylpropyl)-5-methyl-1H-pyrazol-4-yl)amino)pyrimidin-4-yl)pyridin-2-yl)isoxazol-5-yl)-1-methylpyrrolidin-2-one], the IC50 lay within 50 to 500 nM.

In the case of `CN1CC(F)(F)[C@@](O)(c2cc(-c3cccc(-c4ccnc(Nc5cnn6c5CCC6)n4)n3)no2)C1=O` [Example 243, (R)-3-(3-(6-(2-((5,6-Dihydro-4H-pyrrolo[1,2-b]pyrazol-3-yl)amino)pyrimidin-4-yl)pyridin-2-yl)isoxazol-5-yl)-4,4-difluoro-3-hydroxy-1-methylpyrrolidin-2-one], the IC50 is under 50 nM.

Turning to `Cc1cccc(Nc2nccc(-c3cccc(-c4cc([C@]5(O)CCN(C)C5=O)on4)n3)n2)n1` [Example 244, (R)-3-Hydroxy-1-methyl-3-(3-(6-(2-((6-methylpyridin-2-yl)amino)pyrimidin-4-yl)pyridin-2-yl)isoxazol-5-yl)pyrrolidin-2-one], the IC50 is 50 to 500 nM.

Turning to `Cc1cncc(Nc2nccc(-c3cccc(-c4cc([C@]5(O)CCN(C)C5=O)on4)n3)n2)c1` [Example 245, (R)-3-Hydroxy-1-methyl-3-(3-(6-(2-((5-methylpyridin-3-yl)amino)pyrimidin-4-yl)pyridin-2-yl)isoxazol-5-yl)pyrrolidin-2-one], the IC50 is over 500 nM.

For the compound `Cc1cnccc1Nc1nccc(-c2cccc(-c3cc([C@]4(O)CCN(C)C4=O)on3)n2)n1` [Example 246, (R)-3-Hydroxy-1-methyl-3-(3-(6-(2-((3-methylpyridin-4-yl)amino)pyrimidin-4-yl)pyridin-2-yl)isoxazol-5-yl)pyrrolidin-2-one], the IC50 is over 500 nM.

For `CN1CC[C@@](O)(c2cc(-c3cccc(-c4ccnc(Nc5cccnc5)n4)n3)no2)C1=O` [Example 247, (R)-3-Hydroxy-1-methyl-3-(3-(6-(2-(pyridin-3-ylamino)pyrimidin-4-yl)pyridin-2-yl)isoxazol-5-yl)pyrrolidin-2-one], the IC50 was over 500 nM.

On to `CN1CC[C@@](O)(c2cc(-c3cccc(-c4ccnc(Nc5ccccn5)n4)n3)no2)C1=O` [Example 248, (R)-3-Hydroxy-1-methyl-3-(3-(6-(2-(pyridin-2-ylamino)pyrimidin-4-yl)pyridin-2-yl)isoxazol-5-yl)pyrrolidin-2-one], for which the IC50 lay within 50 to 500 nM.

Consider `CN1CC[C@@](O)(c2cc(-c3cccc(-c4ccnc(Nc5ccncc5)n4)n3)no2)C1=O` [Example 249, (R)-3-Hydroxy-1-methyl-3-(3-(6-(2-(pyridin-4-ylamino)pyrimidin-4-yl)pyridin-2-yl)isoxazol-5-yl)pyrrolidin-2-one], for which the IC50 is under 50 nM.

For the compound `CCn1cc(Nc2nccc(-c3cccc(-c4cc([C@]5(O)CCN(C)C5=O)on4)n3)n2)c(C)n1` [Example 250, (R)-3-(3-(6-(2-((1-Ethyl-3-methyl-1H-pyrazol-4-yl)amino)pyrimidin-4-yl)pyridin-2-yl)isoxazol-5-yl)-3-hydroxy-1-methylpyrrolidin-2-one], the IC50 is under 50 nM.

In the case of `CN1CC[C@@](O)(c2cn(-c3cccc(-c4ccnc(Nc5cnn6c5CCCC6)n4)n3)nn2)C1=O` [Example 251, (R)-3-Hydroxy-1-methyl-3-(1-(6-(2-((4,5,6,7-tetrahydropyrazolo[1,5-a]pyridin-3-yl)amino)pyrimidin-4-yl)pyridin-2-yl)-1H-1,2,3-triazol-4-yl)pyrrolidin-2-one], the IC50 was under 50 nM.

As for `Cc1nn(C2CCN(C)CC2)cc1Nc1nccc(-c2cccc(-c3cc([C@]4(O)CCN(C)C4=O)on3)n2)n1` [Example 252], the IC50 was in the range of 50 to 500 nM.

Turning to `CCn1ccc(Nc2nccc(-c3cccc(-n4cc([C@]5(O)CCN(C)C5=O)nn4)n3)n2)n1` [Example 253, (3R)-3-[1-[6-[2-[(1-Ethylpyrazol-3-yl)amino]pyrimidin-4-yl]-2-pyridyl]triazol-4-yl]-3-hydroxy-1-methyl-pyrrolidin-2-one], the IC50 was under 50 nM.

For `CN1CC[C@@](O)(c2cc(-c3cccc(-c4ccnc(Nc5ccc(F)cn5)n4)n3)no2)C1=O` [Example 254, (R)-3-(3-(6-(2-((5-Fluoropyridin-2-yl)amino)pyrimidin-4-yl)pyridin-2-yl)isoxazol-5-yl)-3-hydroxy-1-methylpyrrolidin-2-one], the IC50 lay in the range of 50 to 500 nM.

As for `COc1ccc(Nc2nccc(-c3cccc(-c4cc([C@]5(O)CCN(C)C5=O)on4)n3)n2)nn1` [Example 255, (R)-3-Hydroxy-3-(3-(6-(2-((6-methoxypyridazin-3-yl)amino)pyrimidin-4-yl)pyridin-2-yl)isoxazol-5-yl)-1-methylpyrrolidin-2-one], the IC50 fell in the range of 50 to 500 nM.

With `Cc1ccc(Nc2nccc(-c3cccc(-c4cc([C@]5(O)CCN(C)C5=O)on4)n3)n2)nn1` [Example 256, (R)-3-Hydroxy-1-methyl-3-(3-(6-(2-((6-methylpyridazin-3-yl)amino)pyrimidin-4-yl)pyridin-2-yl)isoxazol-5-yl)pyrrolidin-2-one], the IC50 fell in the range of 50 to 500 nM.

As to `CN1CC[C@@](O)(c2cc(-c3cccc(-c4ccnc(Nc5ccnc6c5CCO6)n4)n3)no2)C1=O` [Example 257, (R)-3-(3-(6-(2-((2,3-Dihydrofuro[2,3-b]pyridin-4-yl)amino)pyrimidin-4-yl)pyridin-2-yl)isoxazol-5-yl)-3-hydroxy-1-methylpyrrolidin-2-one], the IC50 was under 50 nM.

Consider `CN1CC[C@@](O)(c2cc(-c3cccc(-c4ccnc(Nc5nc(CN6CCCC6)cs5)n4)n3)no2)C1=O` [Example 258, (R)-3-Hydroxy-1-methyl-3-(3-(6-(2-((4-(pyrrolidin-1-ylmethyl)thiazol-2-yl)amino)pyrimidin-4-yl)pyridin-2-yl)isoxazol-5-yl)pyrrolidin-2-one], for which the IC50 is under 50 nM.
